Experimental data from ChEMBL document CHEMBL4819148, “Anti-protozoal and anti-fungal evaluation of 3,5-disubstituted 1,2-dioxolanes” (Bioorg Med Chem Lett, 2021).
Converted amounts (≈) assume the structure as drawn.

Experiments:
Candida albicans [1] = assay: Antifungal activity against wild type Candida albicans; assay type: functional
Plasmodium falciparum [2] = assay: Antimalarial activity against Plasmodium falciparum; assay type: functional, organism-based
[3] = Selectivity index, ratio of CC50 for cytotoxicity against HUVEC cells to IC50 for antiplasmodial activity against Plasmodium falciparum 3D7; assay type: toxicity, cell-based; conditions: human, read-out: Ratio CC50/IC50
Plasmodium falciparum [4] = assay: Antimalarial activity against Plasmodium falciparum 3D7 assessed as inhibition of parasite growth; assay type: functional, organism-based
Aspergillus fumigatus = assay: Antifungal activity against Aspergillus fumigatus ASFU76 assessed as reduction in fungal growth after; assay type: functional, organism-based
Candida albicans [5] = assay: Antifungal activity against Candida albicans CAAL93 assessed as reduction in fungal growth; assay type: functional, organism-based
[6] = Selectivity index, ratio of CC50 for cytotoxicity against HUVEC cells to IC50 for antileishmanial activity against axenic amastigote form of Leishmania donovani LV9; assay type: toxicity, cell-based; conditions: human, read-out: Ratio CC50/IC50
Leishmania donovani [7] = assay: Antileishmanial activity against axenic amastigote form of Leishmania donovani LV9 assessed as reduction in parasite growth; assay type: functional, organism-based
[8] = Cytotoxicity against HUVEC cells assessed as reduction in cell viability; assay type: cell-based; conditions: human
Leishmania donovani [9] = assay: Antileishmanial activity against intramacrophage form of Leishmania donovani LV9 assessed as reduction in parasite growth; assay type: functional, organism-based

SMILES: C=C/C=C/C=C\C=C\C=C\C=C/C=C\C[C@H]1C[C@@H](CC(=O)O)OO1
- MIC (Candida albicans [1]): 0.61 µM (≈ 0.2 µg/mL)
- EC50 (Plasmodium falciparum [2]): 0.052 µM

SMILES: CCCCCCC1CCOO1 (configuration not stated)
- selectivity ratio [3]: < 10.6
- IC50 (Plasmodium falciparum [4]): > 1 µM
- IC50 (Aspergillus fumigatus): > 100 µM
- IC50 (Candida albicans [5]): > 100 µM
- selectivity ratio [6]: 0.2
- IC50 (Leishmania donovani [7]): 49.8 µM
- CC50 [8]: 10.6 µM

SMILES: CCCCCCCCCCCCCCC[C@H]1C[C@@H](CC(=O)O)OO1
- IC50 (Plasmodium falciparum [4]): > 1 µM
- IC50 (Aspergillus fumigatus): > 100 µM
- IC50 (Candida albicans [5]): > 100 µM
- IC50 (Leishmania donovani [7]): 6.16 µM

SMILES: CC(=O)OC1CC(CCO[Si](c2ccccc2)(c2ccccc2)C(C)(C)C)OO1 (mixture of isomers)
- IC50 (Plasmodium falciparum [4]): > 1 µM
- IC50 (Aspergillus fumigatus): > 100 µM
- IC50 (Candida albicans [5]): > 100 µM
- IC50 (Leishmania donovani [7]): > 100 µM

SMILES: C=CCC1CC(CCCCCC)OO1 (mixture of isomers)
- selectivity ratio [3]: 7
- IC50 (Plasmodium falciparum [4]): 0.1 µM
- IC50 (Aspergillus fumigatus): > 100 µM
- IC50 (Candida albicans [5]): 25.2 µM
- selectivity ratio [6]: < 0.01
- IC50 (Leishmania donovani [7]): > 100 µM
- CC50 [8]: 0.7 µM

SMILES: CCCCCCCCCCCCCCC[C@H]1C[C@@H](CCO)OO1 (mixture of isomers)
- IC50 (Plasmodium falciparum [4]): > 1 µM
- IC50 (Aspergillus fumigatus): > 100 µM
- IC50 (Candida albicans [5]): > 100 µM
- IC50 (Leishmania donovani [7]): 5.57 µM

SMILES: CCCCCCC1CC(OC(C)=O)OO1 (mixture of isomers)
- selectivity ratio [3]: < 57
- IC50 (Plasmodium falciparum [4]): > 1 µM
- IC50 (Leishmania donovani [9]): > 100 µM
- IC50 (Aspergillus fumigatus): > 100 µM
- IC50 (Candida albicans [5]): > 100 µM
- selectivity ratio [6]: 0.82
- IC50 (Leishmania donovani [7]): 70.7 µM
- CC50 [8]: 57.8 µM

SMILES: CCCCCCC1CC(C/C=C\Cl)OO1 (mixture of isomers)
- selectivity ratio [3]: 40
- IC50 (Plasmodium falciparum [4]): 0.15 µM
- IC50 (Leishmania donovani [9]): 28.4 µM
- IC50 (Aspergillus fumigatus): > 100 µM
- IC50 (Candida albicans [5]): 33.4 µM
- selectivity ratio [6]: 4.09
- IC50 (Leishmania donovani [7]): 1.5 µM
- CC50 [8]: 6.13 µM

SMILES: CCCCCCC1CC(O)OO1 (mixture of isomers)
- selectivity ratio [3]: < 71
- IC50 (Plasmodium falciparum [4]): > 1 µM
- IC50 (Leishmania donovani [9]): > 100 µM
- IC50 (Aspergillus fumigatus): > 100 µM
- IC50 (Candida albicans [5]): > 100 µM
- selectivity ratio [6]: < 0.72
- IC50 (Leishmania donovani [7]): > 100 µM
- CC50 [8]: 71.7 µM

SMILES: C=C(C)CC1CC(CCCCCC)OO1 (mixture of isomers)
- selectivity ratio [3]: 68
- IC50 (Plasmodium falciparum [4]): 0.17 µM
- IC50 (Leishmania donovani [9]): > 100 µM
- IC50 (Aspergillus fumigatus): 35.7 µM
- IC50 (Candida albicans [5]): 35.7 µM
- selectivity ratio [6]: 1.71
- IC50 (Leishmania donovani [7]): 6.82 µM
- CC50 [8]: 11.7 µM

SMILES: CC(=O)OC1CC(C2CCCCC2)OO1 (mixture of isomers)
- IC50 (Plasmodium falciparum [4]): > 1 µM
- IC50 (Aspergillus fumigatus): > 100 µM
- IC50 (Candida albicans [5]): > 100 µM
- IC50 (Leishmania donovani [7]): 56.6 µM

SMILES: CC(C)C1CC(O)OO1 (mixture of isomers)
- selectivity ratio [3]: 234
- IC50 (Plasmodium falciparum [4]): 0.12 µM
- IC50 (Leishmania donovani [9]): > 100 µM
- IC50 (Aspergillus fumigatus): > 100 µM
- IC50 (Candida albicans [5]): > 100 µM
- selectivity ratio [6]: < 0.28
- IC50 (Leishmania donovani [7]): > 100 µM
- CC50 [8]: 28.2 µM

SMILES: CCCCCCC1CC(C/C=C\Br)OO1 (mixture of isomers)
- selectivity ratio [3]: < 2
- IC50 (Plasmodium falciparum [4]): > 1 µM
- IC50 (Leishmania donovani [9]): 33.6 µM
- IC50 (Aspergillus fumigatus): > 100 µM
- IC50 (Candida albicans [5]): > 100 µM
- selectivity ratio [6]: 1.48
- IC50 (Leishmania donovani [7]): 1.55 µM
- CC50 [8]: 2.29 µM

SMILES: CCCCCCC1CC(C#N)OO1 (mixture of isomers)
- selectivity ratio [3]: < 10
- IC50 (Plasmodium falciparum [4]): > 1 µM
- IC50 (Leishmania donovani [9]): > 100 µM
- IC50 (Aspergillus fumigatus): > 100 µM
- IC50 (Candida albicans [5]): > 100 µM
- selectivity ratio [6]: 0.26
- IC50 (Leishmania donovani [7]): 42.9 µM
- CC50 [8]: 10.9 µM

SMILES: CC(C)(C)C1CC(O)OO1 (mixture of isomers)
- selectivity ratio [3]: 35
- IC50 (Plasmodium falciparum [4]): 0.34 µM
- IC50 (Leishmania donovani [9]): > 100 µM
- IC50 (Aspergillus fumigatus): > 100 µM
- IC50 (Candida albicans [5]): > 100 µM
- selectivity ratio [6]: < 0.12
- IC50 (Leishmania donovani [7]): > 100 µM
- CC50 [8]: 12.2 µM

SMILES: CCCCCCC1CC(CC(=O)SCC)OO1 (mixture of isomers)
- selectivity ratio [3]: 7
- IC50 (Plasmodium falciparum [4]): 0.25 µM
- IC50 (Leishmania donovani [9]): 38.9 µM
- IC50 (Aspergillus fumigatus): > 100 µM
- IC50 (Candida albicans [5]): > 100 µM
- selectivity ratio [6]: 1.01
- IC50 (Leishmania donovani [7]): 1.88 µM
- CC50 [8]: 1.89 µM

SMILES: C=CCC1CC(CCO[Si](c2ccccc2)(c2ccccc2)C(C)(C)C)OO1 (mixture of isomers)
- IC50 (Plasmodium falciparum [4]): > 1 µM
- IC50 (Aspergillus fumigatus): > 100 µM
- IC50 (Candida albicans [5]): > 100 µM
- IC50 (Leishmania donovani [7]): > 100 µM

SMILES: CC(=O)OC1CC(C(C)(C)C)OO1 (mixture of isomers)
- selectivity ratio [3]: 628
- IC50 (Plasmodium falciparum [4]): 0.02 µM
- IC50 (Leishmania donovani [9]): 44.3 µM
- IC50 (Aspergillus fumigatus): > 100 µM
- IC50 (Candida albicans [5]): > 100 µM
- selectivity ratio [6]: < 0.13
- IC50 (Leishmania donovani [7]): > 100 µM
- CC50 [8]: 12.6 µM

SMILES: CCCCCCC1CC(CC(=O)c2ccccc2)OO1 (mixture of isomers)
- selectivity ratio [3]: 24
- IC50 (Plasmodium falciparum [4]): 0.37 µM
- IC50 (Aspergillus fumigatus): > 100 µM
- IC50 (Candida albicans [5]): > 100 µM
- selectivity ratio [6]: < 0.09
- IC50 (Leishmania donovani [7]): > 100 µM
- CC50 [8]: 9.02 µM

SMILES: CCCCCCC1CC(CC(=O)Sc2ccccc2)OO1 (mixture of isomers)
- selectivity ratio [3]: < 1.8
- IC50 (Plasmodium falciparum [4]): > 1 µM
- IC50 (Leishmania donovani [9]): > 100 µM
- IC50 (Aspergillus fumigatus): > 100 µM
- IC50 (Candida albicans [5]): > 100 µM
- selectivity ratio [6]: 0.83
- IC50 (Leishmania donovani [7]): 2.2 µM
- CC50 [8]: 1.82 µM

SMILES: CC(=O)OC1CC(C(C)C)OO1 (mixture of isomers)
- IC50 (Plasmodium falciparum [4]): 0.1 µM
- IC50 (Leishmania donovani [9]): 32.9 µM
- IC50 (Aspergillus fumigatus): > 100 µM
- IC50 (Candida albicans [5]): > 100 µM
- selectivity ratio [6]: < 0.59
- IC50 (Leishmania donovani [7]): > 100 µM
- CC50 [8]: 59.3 µM

SMILES: C=CCC1CC(C2CCCCC2)OO1 (mixture of isomers)
- IC50 (Plasmodium falciparum [4]): > 1 µM
- IC50 (Aspergillus fumigatus): > 100 µM
- IC50 (Candida albicans [5]): > 100 µM
- IC50 (Leishmania donovani [7]): 6.78 µM

SMILES: CCCCCCC1CC(CC(=O)C(C)(C)C)OO1 (mixture of isomers)
- selectivity ratio [3]: < 6
- IC50 (Plasmodium falciparum [4]): > 1 µM
- IC50 (Leishmania donovani [9]): > 100 µM
- IC50 (Aspergillus fumigatus): > 100 µM
- IC50 (Candida albicans [5]): > 100 µM
- selectivity ratio [6]: 1.38
- IC50 (Leishmania donovani [7]): 4.42 µM
- CC50 [8]: 6.09 µM

SMILES: C[C@@H]1[C@H](O)[C@@H](C)/C=C/C=C/C=C/C=C/C=C/C=C/C=C/[C@H](O[C@@H]2O[C@H](C)[C@@H](O)[C@H](N)[C@@H]2O)C[C@@H]2O[C@](O)(C[C@@H](O)C[C@@H](O)[C@H](O)CC[C@@H](O)C[C@@H](O)CC(=O)O[C@H]1C)C[C@H](O)[C@H]2C(=O)O [AMPHOTERICIN B]
- IC50 (Aspergillus fumigatus): 0.33 µM

SMILES: CCN(CC)CCCC(C)Nc1ccnc2cc(Cl)ccc12 (configuration not stated) [CHLOROQUINE]
- CC50 [8]: 31.5 µM

SMILES: OC(Cn1cncn1)(Cn1cncn1)c1ccc(F)cc1F [FLUCONAZOLE]
- IC50 (Candida albicans [5]): 0.3 µM

SMILES: CCCCCCCCCCCCCCCCOP(=O)([O-])OCC[N+](C)(C)C [MILTEFOSINE]
- IC50 (Leishmania donovani [9]): 0.61 µM
- selectivity ratio [6]: 32
- IC50 (Leishmania donovani [7]): 1.7 µM
- CC50 [8]: 54.3 µM
